# Reference: patent publication US8044098B2, “Use of hydroxybenzoic acids and their esters and analogues for preventing or treating virus infection” (Shenghua Guangzhou Pharmaceutical Science & Technology Co., …, priority 2005, dated 2011)
# What was measured:
# HPV 16/18 = experiment: Drug screening by quantitative fluorescent PCR analysis of HPV 16/18 in condyloma acuminata homogenate; parameters: species or system human papillomavirus (HPV)
# HPV 6/11 = experiment: Drug screening by quantitative fluorescent PCR analysis of HPV 6/11 in condyloma acuminata homogenate; parameters: species or system human papillomavirus (HPV)
# flat warts = experiment: Clinical use in treating flat warts; format: in vivo, human
# Method: 5 g propyl gallate was mixed with 40 ml 1,2-propylene glycol and heated to dissolve the ingredients. Then 20 ml Tween-80 and 3 ml azone were added into the mixture and mixed well. Sterile distilled water was added to the mixture to reach a final volume of 100 ml.
# Clinically, flat warts were seen as slightly raised, smooth, tan or flesh colored bumps ranging in size from 1-5 mm. They typically appeared on the face, backs of hands and arms.
# 32 male and 28 female patients of 15-46 years old, with the average age of 23 years old, were selected for the test. These patients have had flat warts for any time from 2 weeks to 2 years. Some of the patients have tried other treatment methods for the warts. But no one had undertaken any treatment for the warts in the past 4 weeks. And no one had taken any medicine in the past 2 weeks.
# The patients were randomly divided into two groups of 30 patients each. One group was treated with propyl gallate micro emulsion, the other group with 5% imiquimod cream (made by Sichuan Ming Xin Pharmaceutical Co.), which is a medicine often used for treating flat warts. The test samples were applied to the affected areas of the patient groups three times a day, in the morning, at noon and night. The treatment period was 20 days. The treatment effect was tracked for one year.
# “Recovered”: all warts had disappeared or faded, the skin became flat, no new warts appeared;
# “Obvious Effect”: more than 70% of the warts had disappeared, the bottom of the warts had shrunk, the top of the warts had flattened;
# “Improved”: more than 30% of the warts had disappeared, the top of the warts had flattened;
# “Not Effective”: less than 30% of the warts had disappeared, no change to the warts, or some new warts appeared.
# [1] = format: physicochemical
# Method: 20 ml 1,2-propylene glycol, 15 ml Tween-80 and 5 ml azone were mixed together and sterile distilled water was added to bring the volume to 100 ml. The pH value of the solution was adjusted to pH 6.8 with NaOH or HCl to obtain a micro emulsion. 10 g propyl gallate and 10 g gallic acid were dissolved in the micro emulsion, respectively, and mixed well. 10 ml of each micro emulsion was added to a capped transparent glass tube. Both solutions were colorless. The absorbance of the two solutions at 400˜500 nm was measured with spectrophotometry and their absorbance was under 0.15. […] Measured by spectrophotometry again, the absorbance of the gallic acid solution was 1.2 and that of the propyl gallate solution was 0.4.
# HSV infection = experiment: External treatment of HSV infection in clinical tests; format: in vivo, human; conditions: patients with HSV infection
# Description: Twenty-two patients who were clinically diagnosed with HSV infection were randomly selected and divided into two groups. Acyclovir ointment and micro emulsion containing propyl gallate prepared as described in Example 1 were applied to the two groups, respectively, on the affected areas of the patients three times a day.
# [2] = tested on: secretion of HBsAg by 2.2.15 cells; experiment: Inhibition of secretion of HBsAg by Hepatitis B 2.2.15 cell line; format: cell-based, HBV; conditions: 1 μmol/ml
# Description: Hepatitis B 2.2.15 cell line was transfected by HBV DNA (purchased from Institute of Biochemistry and Cell Biology of Shanghai Institute for Biological Sciences or the National Center for Drug Screening) and used as the cell model for screening anti-HBV drug compounds (See Chinese Journal Of Integrated Traditional and Western Medicine on Liver Diseases, 2004, 14(3): 158). The cell culture medium DMEM (GIBCO Company), bovine serum (Hangzhou Siji Qing Biochemical Manufacturer), G418 (GIBCO Company), 3-(4,5-dimethylthiazol-2-yl)-2,5-diphenyltetrazoliumbromide (Sigma), HBsAg and HBeAg diagnostic kit (Shanghai Kehua Bio-engineering Co., Ltd).
# The test compounds listed in Table 3 below were dissolved in a mixture containing 20 ml 1,2-propylene glycol and 15 ml Tween-80 and diluted with sterile saline water to 2 μmol/ml of the test compound. Then it was mixed with the cell culture medium at equal volume to obtain a solution containing 1 μmol/ml of the tested compound. Cells at the concentration of 1×10^5 cells per milliliter were inoculated to a 24-well plate at 1 ml/well. Supernatant from the cell culture mixture was collected three days later for testing.
# condyloma acuminata = experiment: Clinical use in treating condyloma acuminata; format: in vivo, human
# Description: Soft hyperplasia with nipple or cauliflower shaped or other shaped warts were found around the skin of the cunnus or anus. The result from 5% acetate acid white test was positive.
# Patients selected for the clinical observation must meet the above standards. Plus the diameter of their skin lesions should equal to or be less than 1 cm. […] Patients who had vaginal yeast, trichomonas, bacteria infection or other complications, chronic diseases, serious liver or kidney diseases or women in pregnancy or lactation were not selected. Treatments to women would not be conducted in their menstrual periods.
# 50 qualified patients were selected and randomly divided into five groups to be tested with p-hydroxybenzoic acid, gallic acid, ethyl p-hydroxybenzoate, propyl gallate and recombinant human interferon α-2β gel, respectively. The samples of p-hydroxybenzoic acid, gallic acid, ethyl p-hydroxybenzoate and propyl gallate were prepared as described in Example 1. The patients were treated with the test sample to the affected areas three times a day, in the morning, at noon and night. The samples were applied to cover the warts and the patients were required to leave the treated areas exposed and not to move for 20 minutes.
# Observation time: 8 days. Patients not cured after 8 days would continue to use the test samples for another 12 weeks, and their prognosis was followed during the 12-week period.
# Observed items: the location, shape, size and number of warts were carefully observed and recorded before the treatment.
# “Recovered”: all skin lesions had disappeared;
# “Obvious Effect”: more than 70% of the skin lesions had disappeared;
# “Improved”: more than 30% of the skin lesions had disappeared;
# “Not Effective”: less than 30% of the skin lesions had disappeared or the original skin lesions didn't change or even enlarged.
# [3] = 24 hours after adding the test compound
# [4] = number of patients of 30 per group, three times a day, 20 days
smiles,measurement,setting,value
CCCOC(=O)c1cc(O)c(O)c(O)c1 [Propyl gallate],HPV 16/18 Virus (copies/ml),"HPV 16/18; 50 μl 10% micro emulsion + 50 μl HPV sample homogenate, 37° C., 24 hours, saline control 1.40 × 10^5",0 copies/ml
same,HPV 16/18 detected by FQ-PCR (in words),HPV 16/18; [3],no HPV 6/11 or HPV 16/18 was detected
same,HPV 6/11 Virus (copies/ml),"HPV 6/11; 50 μl 10% micro emulsion + 50 μl HPV sample homogenate, 37° C., 24 hours, saline control 1.45 × 10^6",0 copies/ml
same,HPV 6/11 detected by FQ-PCR (in words),HPV 6/11; [3],no HPV 6/11 or HPV 16/18 was detected
same,effectiveness in treating flat warts compared with 5% imiquimod cream,flat warts; 20 days treatment,more effective
same,recurrence of the warts in recovered patients,flat warts; followed for a year,none had recurrence
same,Recovered,"flat warts; number of patients of 30 per group, applied three times a day, 20 days",22
same,Improved,flat warts; [4],2
same,Not Effective,flat warts; [4],1
same,Obvious Effect,flat warts; [4],5
same,Effective Rate,"flat warts; patients recovered or with obvious effect, of 30 per group",90%
same,"colour of solution, initial","[1]; micro emulsion pH 6.8, freshly prepared",colorless
same,absorbance after 30 days,"[1]; micro emulsion pH 6.8, kept at room temperature for 30 days, 400˜500 nm",0.4
same,colour of solution after 30 days,"[1]; micro emulsion pH 6.8, room temperature for 30 days",remained colorless
same,effectiveness in treating HSV infection compared with acyclovir ointment,HSV infection,more effective
same,average time for recovery,HSV infection; applied on affected areas three times a day,3 days
same,effect on the secretion of HBsAg by the 2.2.15 cells (in words),[2],had inhibition effect
same,"inhibition of HBsAg secretion compared with gallic acid and 3,4-dihydroxybenzoic acid",[2],more effective
same,HBsAg Inhibition rate,"[2]; 2.2.15 cells, supernatant collected three days later",18.83%
same,treatment effect compared to recombinant human interferon α-2β gel,"condyloma acuminata; condyloma acuminata patients, 10% micro emulsion",more apparent treatment effect
same,"Recovered, 1-4 days","condyloma acuminata; number of patients (50 patients in five groups), 10% micro emulsion on affected areas three times a day, all skin lesions disappeared",7
same,"Recovered, 5-8 days","condyloma acuminata; number of patients, 10% micro emulsion three times a day, all skin lesions disappeared",1
same,"Obvious Effect, 1-4 days","condyloma acuminata; number of patients, more than 70% of the skin lesions disappeared",2
